Measurements as given in patent publication US11793787B2, “Methods and compositions for enhancing anti-tumor immunity by targeting steroidogenesis” (The Broad Institute, Inc., priority 2019, dated 2023).
“And” between values parts separate entries of the source, which are not always exact repeats. Equal entries are not always repeated. “Also recorded” adds a separate entry of the source.

What was measured:
CD8+ TILs = experiment: Flow cytometry of CD8+ TILs from Metyrapone-treated tumor-bearing mice; assay type: in vivo, mouse; settings: intra-tumoral Metyrapone, early stage of tumor progression
Description: Isolation of TILs. TILs were isolated by dissociating tumor tissue in the presence of collagenase D (2.5 mg/ml) for 20 minutes prior to centrifugation on a discontinuous Percoll gradient (GE Healthcare). Isolated cells were then used in various assays. Flow cytometry. […] Antigen specific […] […] In vivo and in vitro modulation of glucocorticoid synthesis. MC38-Ova^dim was implanted in wild type C57BL/6 mice and either Metyrapone (50 mg/kg; Fisher Scientific), Corticosterone (2.5 mg/kg) or vehicle control PBS (Gibco) was administered intra-tumorally on Day 5, 6, 7 and 9 post-tumor implantation. In some experiments, MC38-Ova^dim tumor explants or sorted lin^-CD45^+CD24^- cells were cultured in the presence or absence of Metyrapone (25 or 50 ng/ml) for 24 hrs. Supernatants were harvested and corticosterone measured by ELISA (Arbor Assays).

[1] = system: Lin-CD45+CD24- monocyte/macrophages from MC38-Ova tumors; experiment: Tumor-associated monocyte/macrophages cultured with Metyrapone, corticosterone ELISA; assay type: cell-based, mouse; settings: 24 hrs culture ex vivo
Description: (§1) In vivo and in vitro modulation of glucocorticoid synthesis. MC38-Ova^dim was implanted in wild type C57BL/6 mice and either Metyrapone (50 mg/kg; Fisher Scientific), Corticosterone (2.5 mg/kg) or vehicle control PBS (Gibco) was administered intra-tumorally on Day 5, 6, 7 and 9 post-tumor implantation. In some experiments, MC38-Ova^dim tumor explants or sorted lin^−CD45^+CD24^− cells were cultured in the presence or absence of Metyrapone (25 or 50 ng/ml) for 24 hrs. Supernatants were harvested and corticosterone measured by ELISA (Arbor Assays).

MC38-Ova tumor explants = MC38-Ova tumor explants cultured with Metyrapone, corticosterone ELISA; assay type: cell-based, mouse; settings: 24 hrs, Metyrapone 25 or 50 ng/ml
Description: as §1

MC38-Ova colon carcinoma = experiment: Intra-tumoral Metyrapone in MC38-Ova tumor-bearing mice, tumor growth; assay type: in vivo, mouse; settings: 50 mg/kg, Days 5, 6, 7 and 9
Text: Tumor cell lines used. MC38-Ova^dim was generously provided by Mark Smyth. B16F10 was purchased from ATCC. MC38 was generously provided by Carla Rothlin. MC38-Ova^dim-GFP was generated in Applicants lab as follows, HEK293T cells were transfected with pLenti PGK GFP Puro plasmid. The resulting Lentivirus was then used to infect Mc38Ova^dim cell line to generate a GFP expressing cell line. MC38-Ova^dim (0.5×10^6) or B16F10 (0.25×10^6) and MC38-Ova^dim-GFP (0.5×10^6) cells were implanted subcutaneously into the right flank of mice.
Tumor experiments. Tumor size was measured in two dimensions by caliper and is expressed as the product of two perpendicular diameters. In some experiments, mice were treated with anti-PD-1 (RMP1-14) ([…]) antibodies or control immunoglobulin (Rat IgG2a) i.p. on days 5, 8 and 11 post-tumor implantation. Mice were then monitored for tumor growth. […] Antibodies were administered bi-weekly for a total of 5 treatments (n=9-10).
as §1, with “In some experiments, MC38-Ova^dim tumor explants or sorted lin^−CD45^+CD24^− cells were cultured in the presence or absence of Metyrapone (25 or 50 ng/ml) for 24 hrs.” left out

[2] = system: MC38-Ova dim colon carcinoma; experiment: Intra-tumoral corticosterone in LysMCre+ Cyp11a1fl/fl mice bearing MC38-Ova dim, tumor progression; assay type: in vivo, mouse; settings: intra-tumoral corticosterone 2.5 mg/kg, Days 5, 6, 7 and 9
Description: Tumor experiments. Tumor size was measured in two dimensions by caliper and is expressed as the product of two perpendicular diameters. […] Mice were then monitored for tumor growth. […] In vivo and in vitro modulation of glucocorticoid synthesis. MC38-Ova^dim was implanted in wild type C57BL/6 mice and either Metyrapone (50 mg/kg; Fisher Scientific), Corticosterone (2.5 mg/kg) or vehicle control PBS (Gibco) was administered intra-tumorally on Day 5, 6, 7 and 9 post-tumor implantation.

CD8+ T cells [3] = experiment: RNA-Seq of naive CD8+ T cells cultured with Dex (GC), IL-27 or GC+IL-27 (Tables 1, 2A, 2B, 3, 5-8); assay type: cell-based, mouse
CD8+ T cells [4] = experiment: Quantitative RT-PCR of Prdm1, Nfil3 and Tcf7 in GC, IL-27 or GC+IL-27 treated CD8+ T cells; assay type: cell-based, mouse; settings: qPCR
Description: Cell culture and treatment with glucocorticoid.
Quantitative PCR. Total RNA was extracted using RNeasy columns (Qiagen) or PicoPure™ RNA Isolation Kit (Thermo Fischer). Reverse transcription of mRNA was performed in a thermal cycler (Bio-Rad) using iScript cDNA Synthesis Kit (Bio-Rad) or SuperScript™ VILO™ cDNA Synthesis Kit (Thermo Fischer). qPCR was performed in the Vii7 Real-Time PCR system (Applied Biosystems) using the primers for Taqman gene expression (Applied Biosystems). Data were normalized to the expression of Actb.

[5] = treated CD8+ T cells, three values per condition, listed as Dex
[6] = treated CD8+ T cells, three values per condition

With `CC(C)(C(=O)c1cccnc1)c1cccnc1` [Metyrapone] the “functional properties of CD8+ TILs compared with loss of GR in CD8+ T cells” value (CD8+ TILs) was “resembled that of CD8^+ TILs from E8i-Cre^+ Nr3c1^fl/fl mice and LysM-Cre^+ Cyp11a1^fl/fl mice”, the “functional properties of CD8+ TILs compared with loss of GR in CD8+ T cells” value (CD8+ TILs; listed as metyrapone) was “phenocopies CD8 GR cKO” and the “corticosterone production by tumor-associated monocyte/macrophages” value [1] was “dramatically reduced; also recorded: significantly inhibited”. The “level of corticosterone in tumor explant supernatants” value (MC38-Ova tumor explants) was “reduced and less” and the tumor growth (MC38-Ova colon carcinoma) was “dramatic tumor growth inhibition”.

`C[C@]12C[C@H](O)[C@H]3[C@@H](CCC4=CC(=O)CC[C@@]43C)[C@@H]1CC[C@@H]2C(=O)CO` [corticosterone] was tested, and the “control of tumor progression in LysMCre+ Cyp11a1fl/fl mice” value [2] was “abrogated”.

With `C[C@@H]1C[C@H]2[C@@H]3CCC4=CC(=O)C=C[C@]4(C)[C@@]3(F)[C@@H](O)C[C@]2(C)[C@@]1(O)C(=O)CO` [dexamethasone] the “number of GC-induced genes overlapping with the T cell dysfunction signature” value (CD8+ T cells [3]; GC versus vehicle control, Table 8) was 463, the 1124 expression levels (CD8+ T cells [3]; [5]) was 156.6 and 224.35 and 191 and the CD28 expression levels (CD8+ T cells [3]; [5]) was 31.98 and 33.89 and 35.83. For the same molecule, the Lilrb4 expression levels (CD8+ T cells [3]; [5]) was 179.28 and 174.41 and 160.09, the Nupr1 expression levels (CD8+ T cells [3]; [5]) was 11.81 and 14.26 and 21.7 and the Tcf7 expression levels (CD8+ T cells [3]; [5]) was 9.54 and 8.42 and 8.72. For the same molecule, the Tgfb3 expression levels (CD8+ T cells [3]; [5]) was 8.53 and 5.51 and 5.9.

B1: IL-27: heterodimeric cytokine of the IL-12 family composed of EBI3 and IL-27p28 (protein, UniProt Q14213 21-229; Q8NEV9 29-243, looked up)
Interleukin-27 subunit beta: RKGPPAALTLPRVQCRASRYPIAVDCSWTLPPAPNSTSPVSFIATYRLGMAARGHSWPCLQQTPTSTSCTITDVQLFSMAPYVLNVTAVHPWGSSSSFVPFITEHIIKPDPPEGVRLSPLAERQLQVQWEPPGSWPFPEIFSLKYWIRYKRQGAARFHRVGPIEATSFILRAVRPRARYYVQVAAQDLTDYGELSDWSLPATATMSLGK
Interleukin-27 subunit alpha: FPRPPGRPQLSLQELRREFTVSLHLARKLLSEVRGQAHRFAESHLPGVNLYLLPLGEQLPDVSLTFQAWRRLSDPERLCFISTTLQPFHALLGGLGTQGRWTNMERMQLWAMRLDLRDLQRHLRFQVLAAGFNLPEEEEEEEEEEEEERKGLLPGALGSALQGPAQVSWPQLLSTYRLLHSLELVLSRAVRELLLLSKAGHSVWPLGFPTLSPQP
For B1, the CD28 expression levels (CD8+ T cells [3]; [6]) was 48.93 and 37.2 and 39.84, the Lilrb4 expression levels (CD8+ T cells [3]; [6]) was 73.62 and 94.25 and 105.87 and the Nupr1 expression levels (CD8+ T cells [3]; [6]) was 11.93 and 21.86 and 19.79. For the same molecule, the Tcf7 expression levels (CD8+ T cells [3]; [6]) was 5.37 and 7.39 and 5.57 and the Tcf7 expression (CD8+ T cells [4]) was “dramatically reduced”.
